# Source: publication PMC8425678, “1-Oxo-3,4-dihydroisoquinoline-4-carboxamides as novel druglike inhibitors of poly(ADP-ribose) polymerase (PARP) with favourable ADME characteristics” (Journal of Enzyme Inhibition and Medicinal Chemistry, 2021)
# “Also recorded” adds a separate entry of the source.
# Key:
# [1] = molecular target: T1, PARP1 (Homo sapiens, UniProt P09874); experiment: PARP1 colorimetric activity assay kit (BPS Bioscience); format: biochemical; conditions: for inhibition at 1 µM: read-out: PARP1 % inhibition at 1 µM, 1 µM compound, triplicate (n = 3); for IC50: dose-response, mean (n = 3) ± SD, r^2 in brackets; for PARP1 inhibitory potency in words: compared with 3l
# T1 construct: purchased BPS Bioscience (San Diego, CA)
# T1 sequence (P09874 whole entry): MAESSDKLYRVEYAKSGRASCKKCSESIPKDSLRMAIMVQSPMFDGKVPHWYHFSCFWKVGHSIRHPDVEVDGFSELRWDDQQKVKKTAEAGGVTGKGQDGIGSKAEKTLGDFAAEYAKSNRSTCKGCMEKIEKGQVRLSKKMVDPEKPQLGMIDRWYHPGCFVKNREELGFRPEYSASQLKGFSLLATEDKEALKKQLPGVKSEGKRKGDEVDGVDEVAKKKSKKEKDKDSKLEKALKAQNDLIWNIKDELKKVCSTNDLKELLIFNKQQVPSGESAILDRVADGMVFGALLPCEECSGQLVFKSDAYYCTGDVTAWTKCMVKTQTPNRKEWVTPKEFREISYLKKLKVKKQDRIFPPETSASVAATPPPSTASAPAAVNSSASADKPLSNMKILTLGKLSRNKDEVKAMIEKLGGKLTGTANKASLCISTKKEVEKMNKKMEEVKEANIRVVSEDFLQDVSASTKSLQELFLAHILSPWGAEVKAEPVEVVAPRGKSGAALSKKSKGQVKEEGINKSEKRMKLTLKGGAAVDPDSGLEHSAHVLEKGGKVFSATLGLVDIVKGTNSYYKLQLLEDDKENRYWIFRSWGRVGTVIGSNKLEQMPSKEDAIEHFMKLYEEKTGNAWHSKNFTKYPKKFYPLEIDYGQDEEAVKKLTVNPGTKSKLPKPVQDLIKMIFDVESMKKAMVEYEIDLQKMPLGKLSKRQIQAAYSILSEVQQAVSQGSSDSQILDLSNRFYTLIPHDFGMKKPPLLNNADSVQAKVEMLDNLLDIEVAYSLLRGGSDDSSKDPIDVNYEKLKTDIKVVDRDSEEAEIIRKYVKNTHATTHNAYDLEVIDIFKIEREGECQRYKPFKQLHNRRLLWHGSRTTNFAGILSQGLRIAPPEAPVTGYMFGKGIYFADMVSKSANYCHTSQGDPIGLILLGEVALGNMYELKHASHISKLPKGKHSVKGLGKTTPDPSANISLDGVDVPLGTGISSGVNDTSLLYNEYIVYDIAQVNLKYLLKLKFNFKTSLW
# Procedure: (§1) The thirty-six 1-oxo-3,4-dihydroisoquinoline-4-carboxamides 3a-aj and 1-oxoisoquinoline-4-carboxamide 11 were tested for inhibitory activity towards PARP1 and PARP2 using the commercially available colorimetric activity assay kit from BPS Bioscience (San Diego, CA) in full accordance of the supplier’s method description[13]^,[14]. The initial screening was performed against PARP1 at 1 µM concentration of each compound, in triplicate (n = 3) measurements.
# [2] = molecular target: T2, PARP2 (Homo sapiens, UniProt Q9UGN5); experiment: PARP2 colorimetric activity assay kit (BPS Bioscience); format: biochemical; conditions: for IC50: dose-response, mean (n = 3) ± SD, r^2 in brackets
# T2 construct: purchased BPS Bioscience (San Diego, CA)
# T2 sequence (Q9UGN5 whole entry): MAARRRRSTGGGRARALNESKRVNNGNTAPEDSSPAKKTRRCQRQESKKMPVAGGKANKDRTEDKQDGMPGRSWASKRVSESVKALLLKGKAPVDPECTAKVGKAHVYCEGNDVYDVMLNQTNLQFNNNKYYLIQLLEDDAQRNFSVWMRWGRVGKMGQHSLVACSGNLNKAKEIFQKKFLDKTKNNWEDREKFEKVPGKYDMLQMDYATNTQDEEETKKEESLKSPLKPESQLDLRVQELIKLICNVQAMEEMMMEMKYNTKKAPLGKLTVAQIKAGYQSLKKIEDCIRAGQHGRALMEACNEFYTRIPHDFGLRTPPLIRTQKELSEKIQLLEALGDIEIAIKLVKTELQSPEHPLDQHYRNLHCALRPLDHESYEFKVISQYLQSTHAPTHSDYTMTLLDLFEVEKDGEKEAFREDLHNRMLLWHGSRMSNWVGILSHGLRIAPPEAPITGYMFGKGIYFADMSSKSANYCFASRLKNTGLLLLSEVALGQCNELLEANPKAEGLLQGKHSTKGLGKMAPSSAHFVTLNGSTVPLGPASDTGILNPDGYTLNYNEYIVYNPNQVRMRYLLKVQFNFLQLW
# Procedure: as §1
SMILES,inhibition at 1 µM [1] [%],melting point [°C],further results
"CCOC(=O)N1CCN(C(=O)C2CNC(=O)c3ccccc32)CC1 (stereo not shown) [Compound 3a, Ethyl 4–(1-oxo-1,2,3,4-tetrahydroisoquinoline-4-carbonyl)piperazine-1-carboxylate]",26.3 ± 7.7,,
"O=C1NCC(C(=O)N2CCC(N3CCC(F)(F)CC3)CC2)c2ccc(F)cc21 (stereo not shown) [Compound 3ah, 4–(4,4-Difluoro-[1,4'-bipiperidine]-1'-carbonyl)-7-fluoro-3,4-dihydroisoquinolin-1(2H)-one]",81.9 ± 1.8,,"IC50 [1]: 0.371 ± 0.042 µM; SI, selectivity index (PARP2 over PARP1) [2]: 4.46; IC50 [2]: 0.0831 ± 0.0069 µM"
"O=C1NCC(C(=O)N2CCC(N3CCC(F)CC3)CC2)c2ccc(F)cc21 (stereo not shown) [Compound 3ai, 7-Fluoro-4–(4-fluoro-[1,4'-bipiperidine]-1'-carbonyl)-3,4-dihydroisoquinolin-1(2H)-one]",93.7 ± 0.8,,"IC50 [1]: 0.148 ± 0.017 µM; SI, selectivity index (PARP2 over PARP1) [2]: 3.52; IC50 [2]: 0.042 ± 0.0023 µM"
"CC1CCN(C(=O)C2CNC(=O)c3ccccc32)CC1 (stereo not shown) [Compound 3b, 4–(4-Methylpiperidine-1-carbonyl)-3,4-dihydroisoquinolin-1(2H)-one]",42.7 ± 0.9,,
"CN(Cc1ccccc1)C(=O)C1CNC(=O)c2ccccc21 (stereo not shown) [Compound 3c, N-Benzyl-N-methyl-1-oxo-1,2,3,4-tetrahydroisoquinoline-4-carboxamide]",18.6 ± 13.2,148 to 149,
"O=C1NCC(C(=O)NCc2ccc(Cl)cc2)c2ccccc21 (stereo not shown) [Compound 3d, N-(4-Chlorobenzyl)-1-oxo-1,2,3,4-tetrahydroisoquinoline-4-carboxamide]",7.4 ± 8.7,,
"O=C1NCC(C(=O)N2CCc3ccccc3C2)c2ccccc21 (stereo not shown) [Compound 3e, 4–(1,2,3,4-Tetrahydroisoquinoline-2-carbonyl)-3,4-dihydroisoquinolin-1(2H)-one]",56 ± 7.5,222 to 223,
"CCN1CCN(C(=O)C2CNC(=O)c3ccccc32)CC1 (stereo not shown) [Compound 3f, 4–(4-ethylpiperazine-1-carbonyl)-3,4-dihydroisoquinolin-1(2H)-one]",26.2 ± 9.7,,
"CCOC(=O)C1CCN(C(=O)C2CNC(=O)c3ccccc32)CC1 (stereo not shown) [Compound 3g, Ethyl 1–(1-oxo-1,2,3,4-tetrahydroisoquinoline-4-carbonyl)piperidine-4-carboxylate]",47.6 ± 4.1,120 to 121,
"CN1CCN(C(=O)C2CNC(=O)c3ccccc32)CC1 (stereo not shown) [Compound 3h, 4–(4-Methylpiperazine-1-carbonyl)-3,4-dihydroisoquinolin-1(2H)-one]",27.3 ± 6,163 to 164,
"Cc1ccc(S(=O)(=O)N2CCN(C(=O)C3CNC(=O)c4ccccc43)CC2)cc1 (stereo not shown) [Compound 3i, 4–(4-Tosylpiperazine-1-carbonyl)-3,4-dihydroisoquinolin-1(2H)-one]",28.9 ± 5.5,228 to 229,
"O=C1NCC(C(=O)N2CCOCC2)c2ccccc21 (stereo not shown) [Compound 3j, 4-(Morpholine-4-carbonyl)-3,4-dihydroisoquinolin-1(2H)-one]",57.6 ± 5.8,,
"O=C1NCC(C(=O)N2CCC(Cc3ccccc3)CC2)c2ccccc21 (stereo not shown) [Compound 3k, 4–(4-Benzylpiperidine-1-carbonyl)-3,4-dihydroisoquinolin-1(2H)-one]",45.1 ± 1.7,191 to 192,
"O=C1NCC(C(=O)N2CCCC2)c2ccccc21 (stereo not shown) [Compound 3m, 4-(Pyrrolidine-1-carbonyl)-3,4-dihydroisoquinolin-1(2H)-one]",31.2 ± 3.4,,
"O=C1NCC(C(=O)N2CCCCCC2)c2ccccc21 (stereo not shown) [Compound 3n, 4-(Azepane-1-carbonyl)-3,4-dihydroisoquinolin-1(2H)-one]",35.4 ± 5.1,,
"O=C1NCC(C(=O)N2CCSCC2)c2ccccc21 (stereo not shown) [Compound 3o, 4-(Thiomorpholine-4-carbonyl)-3,4-dihydroisoquinolin-1(2H)-one]",47.4 ± 3.7,171 to 172,
"O=C1NCC(C(=O)NCc2ccc(F)cc2)c2ccccc21 (stereo not shown) [Compound 3p, N-(4-Fluorobenzyl)-1-oxo-1,2,3,4-tetrahydroisoquinoline-4-carboxamide]",27.2 ± 4.3,188 to 189,

# Continued, in another order:
inhibition at 1 µM [1] [%],melting point [°C],SMILES,further results
32.9 ± 2.4,155 to 156,"COc1ccccc1N1CCN(C(=O)C2CNC(=O)c3ccccc32)CC1 (stereo not shown) [Compound 3q, 4–(4-(2-Methoxyphenyl)piperazine-1-carbonyl)-3,4-dihydroisoquinolin-1(2H)-one]",
28.5 ± 7.1,,"O=C1NCC(C(=O)N2CCC3(CCCCO3)CC2)c2ccccc21 (stereo not shown) [Compound 3r, 4–(1-Oxa-9-azaspiro[5.5]undecane-9-carbonyl)-3,4-dihydroisoquinolin-1(2H)-one]",
12.5 ± 8.5,235 to 236,"O=C1NCC(C(=O)NCc2ccc(N3CCCCC3)cc2)c2ccccc21 (stereo not shown) [Compound 3s, 1-oxo-N-(4-(piperidin-1-yl)benzyl)-1,2,3,4-tetrahydroisoquinoline-4-carboxamide]",
43.3 ± 5.9,,"O=C1NCC(C(=O)N2CCN(Cc3ccc(F)cc3)CC2)c2ccccc21 (stereo not shown) [Compound 3t, 4–(4–(4-Fluorobenzyl)piperazine-1-carbonyl)-3,4-dihydroisoquinolin-1(2H)-one]",
31.9 ± 2,,"O=C1NCC(C(=O)N2CCN(Cc3ccccc3F)CC2)c2ccccc21 (stereo not shown) [Compound 3u, 4–(4-(2-Fluorobenzyl)piperazine-1-carbonyl)-3,4-dihydroisoquinolin-1(2H)-one]",
33.2 ± 4.8,,"O=C1NCC(C(=O)N2CCC(N3CCOCC3)CC2)c2ccccc21 (stereo not shown) [Compound 3v, 4–(4-Morpholinopiperidine-1-carbonyl)-3,4-dihydroisoquinolin-1(2H)-one]",PARP1 inhibitory potency in words [1]: significantly less potent; also recorded: inactive
66.9 ± 1.5,,"O=C1NCC(C(=O)N2CCNCC2)c2ccccc21 (stereo not shown) [Compound 3w, 4-(Piperazine-1-carbonyl)-3,4-dihydroisoquinolin-1(2H)-one]",
44.6 ± 2.9,177 to 178,"O=C1NCC(C(=O)N2CCN(C3CCCC3)CC2)c2ccccc21 (stereo not shown) [Compound 3x, 4–(4-Cyclopentylpiperazine-1-carbonyl)-3,4-dihydroisoquinolin-1(2H)-one]",
54.5 ± 4.6,197 to 198,"O=C1NCC(C(=O)N2CCN(C3CCCCC3)CC2)c2ccccc21 (stereo not shown) [Compound 3y, 4–(4-Cyclohexylpiperazine-1-carbonyl)-3,4-dihydroisoquinolin-1(2H)-one]",PARP1 inhibitory potency in words [1]: significantly less potent; PARP1 inhibitory potency in words ([1]; listed as 3 y): inactive
45.2 ± 7.4,207 to 208,"O=C1NCC(C(=O)N2CCN(C3CCCCCC3)CC2)c2ccccc21 (stereo not shown) [Compound 3z, 4–(4-Cycloheptylpiperazine-1-carbonyl)-3,4-dihydroisoquinolin-1(2H)-one]",
49.1 ± 2.6,171 to 174,"O=C(c1c[nH]c(=O)c2ccccc12)N1CCC(N2CCCCC2)CC1 [Compound 11, 4-([1,4'-Bipiperidine]-1'-carbonyl)isoquinolin-1(2H)-one]","fold lower potency compared to 3l or 3aa ([1]; 3,4-dehydro analog vs 3l / 3aa): approximately 10 fold"
